Measured values published in patent publication US3954776A, “1-[Methylated piperidino(and pyrrolidin-1-yl)]-3-(substituted phenoxy)-2propanols” (Yoshitomi Pharmeceutical Industries, Ltd., priority 1973, dated 1976).
Values after ≈ are worked out from the molar mass of the structure shown. Counter-ions that a name gives are not always drawn.

Assays:
[1] = system: isolated guinea pig atria; assay: Antiarrhythmic action on functional refractory period; type: cell-based; conditions: method of Zetler et al; for EC50: Cavia porcellus
Description: 1. Antiarrhythmic action on functional refractory period
The test was performed essentially by the method described by G. Zetler et al in "Naunyn-Schmiedebergs Archiv fur Pharmakologie", vol. 271, 335-345 (1971), using isolated guinea pig atria.

[2] = system: guinea pig; assay: Surface anaesthetic action; type: in vivo; conditions: relative to procaine = 1; guinea pig (male, about 400 g); method of Chance et al
Description: 3. Surface anaesthetic action
The test was performed essentially by the method described by M.R.A. Chance et al in "Journal of Pharmacology and Experimental Therapeutics", vol. 82, 203-210 (1944), using guinea pig (male, about 400 g).

[3] = system: guinea pig; assay: Infiltration anaesthetic action; type: in vivo; conditions: relative to procaine = 1; guinea pig (male, about 400 g); method of Bulbring et al
Description: 2. Infiltration anaesthetic action
The test was performed essentially by the method described by E. Bulbring et al in "Journal of Pharmacology and Experimental Therapeutics", vol. 85, 78-84 (1945), using guinea pig (male, about 400 g).

COCCOc1ccccc1OCC(O)CN1C(C)(C)CCCC1(C)C (centres unmarked) [A]
EC50 [1]: 24 µg/mL (≈ 65.7 µM)

CC1(C)CCCC(C)(C)N1CC(O)COc1ccccc1OCC1CCCO1 (centres unmarked) [B]
EC50 [1]: 17 µg/mL (≈ 43.4 µM)
Efficiency Rate (procaine = 1), surface anaesthetic action [2]: 26.7

CC1(C)CCC(C)(C)N1CC(O)COc1ccccc1OCc1ccco1 (centres unmarked) [C]
EC50 [1]: 13 µg/mL (≈ 34.8 µM)
Efficiency Rate (procaine = 1), surface anaesthetic action [2]: 30.0

CSCCOc1ccccc1OCC(O)CN1C(C)(C)CCCC1(C)C (centres unmarked) [D]
EC50 [1]: 15 µg/mL (≈ 39.3 µM)
Efficiency Rate (procaine = 1), surface anaesthetic action [2]: 27.2

CC1(C)CCCC(C)(C)N1CC(O)COc1ccccc1Cc1ccccn1 (centres unmarked) [E]
EC50 [1]: 22 µg/mL (≈ 57.5 µM)

CC1(C)CCCC(C)(C)N1CC(O)COc1ccccc1Oc1ccccn1 (centres unmarked) [F]
EC50 [1]: 12 µg/mL (≈ 31.2 µM)

CC1CCCC(C)N1CC(O)COc1ccccc1OCc1cccs1 (centres unmarked) [G]
EC50 [1]: 18 µg/mL (≈ 47.9 µM)
Efficiency Rate (procaine = 1), surface anaesthetic action [2]: 23.6

CC1(C)CCCC(C)(C)N1CC(O)COc1ccccc1OCc1ccco1 (centres unmarked) [H]
Efficiency Rate (procaine = 1), infiltration anaesthetic action [3]: 51.7

CC1CCCC(C)N1CC(O)COc1ccccc1Cc1cccs1 (centres unmarked) [I]
Efficiency Rate (procaine = 1), surface anaesthetic action [2]: 27.1
Efficiency Rate (procaine = 1), infiltration anaesthetic action [3]: 98.7

CC1(C)CCCC(C)(C)N1CC(O)COc1ccccc1Cc1cccs1 (centres unmarked) [J]
Efficiency Rate (procaine = 1), infiltration anaesthetic action [3]: 35.6

CC1CCCCN1CC(O)COc1ccccc1Cc1cccs1 (centres unmarked) [K]
Efficiency Rate (procaine = 1), infiltration anaesthetic action [3]: 167.5

CC1CCCCN1CC(O)COc1ccc(Cc2cccs2)cc1 (centres unmarked) [L]
Efficiency Rate (procaine = 1), surface anaesthetic action [2]: 23.9

Cc1ccccc1OCC(O)CN1C(C)(C)CCC1(C)C (centres unmarked) [Lotucaine, 1-(2,2,5,5-tetramethylpyrrolidin-1-yl)-3-(o-tolyloxy)-2-propanolhydrochloride, reference compound]
EC50 (antiarrhythmic action on functional refractory period) [1]: no effect
Efficiency Rate (procaine = 1), surface anaesthetic action [2]: 11.1
Efficiency Rate (procaine = 1), infiltration anaesthetic action [3]: 11.3
